Literature values, collected in patent publication US11571438B1, “Nutraceutical compositions to up-regulate SIRT1 and methods of use” (priority 2022, dated 2023).

Legend:
AMPK = conditions: individual administration
mTOR = conditions: individual administration

## COc1ccc2cc3[n+](cc2c1OC)CCc1cc2c(cc1-3)OCO2 [berberine]
AMPK
  AMPK activation: statistically significant increase
mTOR
  mTOR inhibition: statistically significant increase

## COc1cc(/C=C/C(=O)O)ccc1O [ferulic acid]
AMPK
  AMPK activation: statistically significant increase
mTOR
  mTOR inhibition: statistically significant increase

## O=c1c(O)c(-c2ccc(O)c(O)c2)oc2cc(O)cc(O)c12 [quercetin]
AMPK
  AMPK activation: statistically significant increase
mTOR
  mTOR inhibition: statistically significant increase

## OCCc1ccc(O)cc1 [tyrosol]
AMPK
  AMPK activation: statistically significant increase
mTOR
  mTOR inhibition: statistically significant increase
